{"source": "patent US12291654B2", "about": "“Fluorescent polymeric coating film for medical devices” (UNIVERSITE DE STRASBOURG, priority 2018, dated 2025)", "key": {"[1]": {"assay": "Fluorescence of coating films made from different hydrophobic polymers (PMMA, PLGA, PLC)", "assay_type": "physicochemical", "settings": "PLGA or PLC, FIG. 10A, 10B", "protocol": "The coating films based on ICG are prepared as control.\nCoating films made from different polymers were also tested."}, "[2]": {"assay": "NIR fluorescence of coated stainless steel wires (fluorescent image system)", "assay_type": "physicochemical", "settings": "PMMA film, dye 1 wt %; coated 1, 2, 3 or 5 times; FIG. 1", "protocol": "Polymethylmethacrylate is dissolved at 30 mg/ml in acetonitrile.\nAt this step the fiducial is ready to use."}}, "data": [{"compound": "CCCCCCCCCCCCCCCCCCN1/C(=C/C=C/C=C/C=C/C2=[N+](CCCCCCCCCCCCCCCCCC)c3ccc4ccccc4c3C2(C)C)C(C)(C)c2c1ccc1ccccc21", "note": "[Cy7.5-C18-TPB, Dioctadecylcyanine 7.5 tetraphenylborate]", "values": [{"measurement": "brightness of coating films, different polymers", "setting": "[1]", "value": "better brightness than a coating film based on ICG"}, {"measurement": "NIR fluorescence of coating film on stainless steel wire", "setting": "[2]", "value": "visible after the first coating and increases by multiple coating"}]}, {"compound": "CCCCCCCCCCCCCCCCCCN1/C(=C/C=C2\\CCCC(/C=C/C3=[N+](CCCCCCCCCCCCCCCCCC)c4ccc5ccccc5c4C3(C)C)=C2Oc2c(-c3ccccc3)cccc2-c2ccccc2)C(C)(C)c2c1ccc1ccccc21.[I-]", "note": "[HA-06-I]", "values": [{"measurement": "brightness of coating films, different polymers", "setting": "[1]", "value": "better brightness than a coating film based on ICG"}]}]}
